Laboratory results published in patent US5298414A (priority 1989, dated 1994).
Entries after “also recorded” stand apart in the source; their conditions may differ. Read-outs that look alike come from different tables or passages of the source.

Columns and labels:
[1] = target: T1, morphine dehydrogenase (MDH) (Pseudomonas putida, UniProt Q02198); experiment: Cofactor requirement of MDH; format: biochemical, Pseudomonas putida MlO
[2] = target: T1, morphine dehydrogenase (MDH); experiment: Substrate specificity of morphine dehydrogenase (Example 4); format: biochemical, Pseudomonas putida MlO; conditions: 0.35 μg purified enzyme, pH 9.5
[3] = target: T1, morphine dehydrogenase (MDH); experiment: biochemical; format: biochemical, Pseudomonas putida MlO; conditions: for (b) Relative activity: 16 h at 4° C. then 10 min at 30° C., no addition gives 16
[4] = target: T1, morphine dehydrogenase (MDH); experiment: Non-oxidation of steroids by morphine dehydrogenase (Example 2 standard assay); format: biochemical, Pseudomonas putida MlO; conditions: morphine replaced by the steroid in the standard assay
[5] = tested on: acetylmorphine carboxylesterase (AMCE); experiment: Substrate specificity of the AMCE (HPLC); format: biochemical, Rhodococcus Hl; conditions: substrate 1.0 mM, purified AMCE 5 U, potassium phosphate buffer pH 7.5, 30° C.
[6] = target: T1, morphine dehydrogenase (MDH); format: biochemical, Pseudomonas putida MlO
[7] = tested on: washed cells of P. putida MlO; format: cell-based, Pseudomonas putida MlO
[8] = 10 min, read-out: (a) Relative activity
[9] = 16 h, read-out: (b) Relative activity

T1 sequence (Q02198 whole entry): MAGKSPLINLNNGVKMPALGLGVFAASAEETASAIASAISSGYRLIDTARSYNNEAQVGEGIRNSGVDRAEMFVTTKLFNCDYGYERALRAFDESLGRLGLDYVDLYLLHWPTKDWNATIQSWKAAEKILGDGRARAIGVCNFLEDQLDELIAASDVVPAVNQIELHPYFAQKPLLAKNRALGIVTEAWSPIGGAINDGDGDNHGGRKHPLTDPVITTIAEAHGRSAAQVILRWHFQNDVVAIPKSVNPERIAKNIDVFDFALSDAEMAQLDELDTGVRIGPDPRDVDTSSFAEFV

3-acetylpyridine ADP
operability as cofactor for MDH [1]: operable

O=C(O)C(O)c1ccccc1 (racemic) [D,L-mandelic acid]
activity relative to 3 mM morphine ([2]; final concentration 10 Mm): zero

O[C@H](CS)[C@H](O)CS (racemic) [Dithiothreitol]
activity at 1000 µM [3, 8]: 97%
activity at 1000 µM [3, 9]: 64%

C[C@]12CC[C@@H](O)C[C@@H]1CC[C@@H]1[C@@H]2CC[C@]2(C)C(=O)CC[C@@H]12 (stereo in doubt) [androsterone]
activity relative to 3 mM morphine ([2]; final concentration 10 Mm): zero
steroid dehydrogenase activity of MDH [4]: No steroid dehydrogenase activity was detected

c1cnc2c(c1)ccc1cccnc12 [1,10-Phenanthroline]
activity at 50 µM [3, 8]: 76%
activity at 500 µM [3, 8]: 61%
activity at 500 µM [3, 9]: 14%

c1ccc(-c2ccccn2)nc1 [2,2'-Dipyridyl]
activity at 50 µM [3, 8]: 75%
activity at 500 µM [3, 8]: 67%
activity at 500 µM [3, 9]: 9%

CC(=O)Oc1ccc2c3c1O[C@H]1[C@@H](O)C=C[C@H]4[C@@H](C2)N(C)CC[C@@]341 [3-acetylmorphine]
time taken to reduce the substrate concentration by 20% [5]: 2 min

CC(=O)O[C@H]1C=C[C@H]2[C@H]3Cc4ccc(O)c5c4[C@@]2(CCN3C)[C@H]1O5 [6-acetylmorphine]
time taken to reduce the substrate concentration by 20% [5]: 240 min
ability to serve as MDH substrate ([6]; pH 10): completely inactive; also recorded: no activity
activity relative to 3 mM morphine ([2]; alkaloid substrates 3 mM): zero

Oc1cccc2cccnc12 [8-Hydroxyquinoline]
(a) Relative activity ([3]; purified mdh, 10 min, 50 µM): 100%

O=S(=O)([O-])[O-].[Cu+2] [CuSO4]
(a) Relative activity ([3]; reagent 0.1 mM, 10 min at room temperature, 100% = 67 U/mg): 34%
(b) Relative activity ([3]; reagent 0.1 mM): 5%

O=C(O)CN(CCN(CC(=O)O)CC(=O)O)CC(=O)O [EDTA]
activity at 500 µM [3, 8]: 104%
activity at 500 µM [3, 9]: 18%

O=C(O)CI [Iodoacetate]
activity at 100 µM [3, 8]: 61%
activity at 1000 µM [3, 8]: 58%
activity at 10000 µM [3, 8]: 54%
activity at 10000 µM [3, 9]: 30%

OCCS [Mercaptoethanol]
activity at 1000 µM [3, 8]: 100%
activity at 1000 µM [3, 9]: 73%

CCN1C(=O)C=CC1=O [N-Ethylmaleimide]
activity at 50 µM [3, 8]: 100%
activity at 1000 µM [3, 8]: 58%
activity at 1000 µM [3, 9]: 23%

NC(=O)c1ccc[n+]([C@@H]2O[C@H](COP(=O)([O-])OP(=O)(O)OC[C@H]3O[C@@H](n4cnc5c(N)ncnc54)[C@H](OP(=O)(O)O)[C@@H]3O)[C@@H](O)[C@H]2O)c1 [NADP^+, nicotinamide adenine dinucleotide phosphate]
operability as cofactor for MDH [1]: absolute requirement

NC(=O)c1ccc[n+]([C@@H]2O[C@H](COP(=O)([O-])OP(=O)(O)OC[C@H]3O[C@@H](n4cnc5c(N)ncnc54)[C@H](O)[C@@H]3O)[C@@H](O)[C@H]2O)c1 [NAD^+]
operability as cofactor for MDH [1]: shown not to be a substrate; also recorded: have not been found to be operable

OCc1ccccc1 [benzyl alcohol]
activity relative to 3 mM morphine ([2]; alcohol substrates 50 mM): zero

CCC(C)O (stereo not drawn) [butan-2-ol]
activity relative to 3 mM morphine ([2]; alcohol substrates 50 mM): zero

COc1ccc2c3c1O[C@H]1[C@@H](O)C=C[C@H]4[C@@H](C2)N(C)CC[C@@]341 [codeine]
activity relative to morphine ([6]; pH 10): 1.7 times that of morphine
activity relative to 3 mM morphine ([2]; alkaloid substrates 3 mM): 120%
metabolism by washed cells grown on heroin [7]: readily metabolised

COc1ccc2c3c1O[C@H]1C(=O)C=C[C@H]4[C@@H](C2)N(C)CC[C@]314 [codeinone]
reverse direction reaction with NADPH [6]: catalysed the oxidation of NADPH
ability to serve as MDH substrate ([6]; pH 10): completely inactive

OC1CCCCC1 [cyclohexanol]
activity relative to 3 mM morphine ([2]; alcohol substrates 50 mM): zero

COc1ccc2c3c1O[C@H]1[C@@H](O)CC[C@H]4[C@@H](C2)N(C)CC[C@@]341 [dihydrocodeine]
ability to serve as MDH substrate ([6]; pH 10): completely inactive; also recorded: did not show any activity
activity relative to 3 mM morphine ([2]; alkaloid substrates 3 mM): 7.1%

CCO [ethanol]
ability to serve as MDH substrate [6]: negative result
ability to serve as MDH substrate ([6]; pH 10): completely inactive; also recorded: does not oxidise
activity relative to 3 mM morphine ([2]; alcohol substrates 50 mM): zero

CCOc1ccc2c3c1O[C@H]1[C@@H](O)C=C[C@H]4[C@@H](C2)N(C)CC[C@@]341 [ethylmorphine]
activity relative to morphine ([6]; pH 10): 1.2 times that of morphine
metabolism by washed cells grown on heroin [7]: readily metabolised

CN1CC[C@]23c4c5ccc(O[C@@H]6O[C@H](C(=O)O)[C@@H](O)[C@H](O)[C@H]6O)c4O[C@H]2[C@@H](O)C=C[C@H]3[C@H]1C5 [morphine glucuronide]
ability to serve as MDH substrate ([6]; pH 10): completely inactive; also recorded: Inactivity

CN1CC[C@]23c4c5ccc(O)c4O[C@H]2[C@@H](O)C=C[C@H]3[C@H]1C5 [morphine]
specific activity as MDH substrate ([6]; pH 10): 0.002 μmol/min./mg. protein
dehydrogenase activity ([2]; 3 mM substrate): 0.0252 μmol NADPH/min

COc1ccc2c3c1O[C@H]1C(=O)CC[C@@]4(O)[C@@H](C2)N(C)CC[C@]314 [oxycodone]
ability to serve as MDH substrate ([6]; pH 10): completely inactive; also recorded: no activity

O=C(O)c1cc[c]([Hg+])cc1.[OH-] [p-Hydroxymercuribenzoate]
(a) Relative activity ([3]; reagent 0.01 mM, 10 min at room temperature, 100% = 67 U/mg): 0%
(b) Relative activity ([3]; reagent 0.01 mM): 0%
activity recovered after incubation with 3 mM dithiothreitol for 10 min ([3]; reagent 0.01 mM, incubation (a)): 45%
activity recovered after incubation with 3 mM dithiothreitol for 10 min ([3]; reagent 0.01 mM, incubation (b)): 23%

CN1CC[C@]23c4c5ccc(OCCN6CCOCC6)c4O[C@H]2[C@@H](O)C=C[C@H]3[C@H]1C5 [pholcodeine]
ability to serve as MDH substrate ([6]; pH 10): completely inactive; also recorded: Inactivity

CC(C)O [propan-2-ol]
activity relative to 3 mM morphine ([2]; alcohol substrates 50 mM): zero

CCCO [propanol]
activity relative to 3 mM morphine ([2]; alcohol substrates 50 mM): zero

C[C@]12CC[C@H]3[C@@H](CCC4=CC(=O)CC[C@@]43C)[C@@H]1CC[C@@H]2O [testosterone]
activity relative to 3 mM morphine ([2]; final concentration 10 Mm): zero
steroid dehydrogenase activity of MDH [4]: No steroid dehydrogenase activity was detected

COC1=CC=C2[C@H]3Cc4ccc(OC)c5c4[C@@]2(CCN3C)[C@H]1O5 [thebaine]
ability to serve as MDH substrate ([6]; pH 10): completely inactive
metabolism by washed cells grown on heroin [7]: not degraded at all

nicotinamide hypoxanthine diphosphate
operability as cofactor for MDH [1]: have not been found to be operable
